# Data from article PMC8869242 (Biomedicines, 2022).
# pEC50, pIC50: −log10 of the molar value. Read-outs that look alike come from different tables or passages of the source.
# Key:
# MDA-MB-231 cells [1] = test: Cell proliferation assay (label-free live cell counting), MDA-MB-231; assay type: cell-based, human; details: for logIC50 ± SEM / IC50: n = 4; for IC50: read-out: IC50 in µM [95% CI]
# Method: The human triple-negative breast cancer cell line MDA-MB-231 (ATCC HTB-26) (absence of estrogen and progesterone receptors, […]) and the non-cancerous breast cell line MCF-12A (ATCC CRL-10782) were purchased from ATCC (Manassas, VA, USA). MDA-MB-231 cells were cultured in DMEM-HG cell growth medium supplemented with 10% (v/v) FBS. MCF-12A cells were cultured in DMEM/F12 medium supplemented with 20 ng/mL hEGF, 100 ng/mL cholera toxin, 0.01 mg/mL bovine insulin, 500 ng/mL hydrocortisone and 5% (v/v) horse serum. Cells were cultured in monolayers in a sterile environment at 37 °C with 5% CO2 humidified atmosphere. Under these conditions, the population doubling time was 25.5 ± 0.9 h and 20.6 ± 3.1 h for MDA-MB-231 and MCF-12A cells, respectively. The cell cultures were routinely screened for mycoplasma contamination, yielding negative results.
# Cells were seeded in 96-well microplates at the cell density 1.5 × 10^4 cells/cm^2 (final volume 200 µL/well) and left 24 h to attach. […] Label-free kinetic live monitoring of cell proliferation was performed using LionheartFX automated microscope (BioTek, Winooski, VT, USA) with direct image acquisition of cells in microplates at 0, 24, 48 and 72 h post-addition of the tested compounds. Acquired 4X images were processed using Gen 5 Image Analysis software (BioTek, Winooski, VT, USA) that allows for identification and counting of individual cells per image. The normalized cell growth (%) was calculated using the following formula: C(t) = [(Number of Treated Cells(t) − Number of Treated Cells(0))/(Number of Untreated Cells(t) − Number of Untreated Cells(0))] × 100, where C(t) is the percent of net cell growth over time, Number of Treated Cells(t) is the count of cells treated with drug at each time point, Number of Treated Cells(0) is the count cells treated with drug at time 0 h, Number of Untreated Cells(t) is the count of untreated (control) cells at each time point, Number of Untreated Cells(0) is the count of untreated (control) cells at time 0 h.
# MDA-MB-231 cells [2] = test: Cell migration, wound healing (scratch) assay; assay type: cell-based, human; details: from AUC0-18h of wound confluence, n = 5; for logEC50 (migration of MDA-MB-231 cells): mean ± SEM
# Method: The effect of compounds on cell migration was studied using wound healing assay (or scratch assay). Triple-negative breast cancer MDA-MB-231 cells were seeded in 24-well microplate at the cell density 12.5 × 10^4 cells/cm^2 (1 mL final volume) and left 24 h to attach and create a confluent monolayer. The cell monolayer was scratched with 200 µL pipette tip, producing a vertical straight wound in the middle of the well; growth medium was removed and wells were washed twice with growth medium to remove all detached cells. […] Wound closure was analyzed as a confluence of the initial cell-free area covered by migrating cells at the indicated time points measured with Gen 5 Image Analysis software. Confluence was calculated using the following formula: C(t) = [(Object Sum Area(t) − Object Sum Area(0))/(I(A) − Object Sum Area(0))] × 100, where C(t) is the percent wound confluence over time, Object Sum Area(t) is the area covered by cells at each time point, Object Sum Area(0) is the area covered by cells at time 0 h and I(A) is the total area of the 4X image.
# MDA-MB-231 breast tumors = test: Subcutaneous in vivo breast cancer xenograft study, tumor growth; parameters: species or system mice; details: i.p. 5 consecutive days, Pd2Spm 5 mg/kg/day, cisplatin 2 mg/kg/day; for tumor growth reduction (versus the vehicle group): end of experiment (day 39 post-implantation); for average tumor volumes compared to vehicle-treated control mice: p < 0.05
# Method: Female CBA nude (N:NIH(S)II-nu/nu) mice (6–7 weeks old, 21 animals in total) with combined immunodeficiency were purchased from i3S Animal Facility (Porto, Portugal). Animals were acclimatized at ICBAS-UP Rodent Animal House Facility (Porto, Portugal) at least one week prior to the experiments, were randomly distributed into groups of three per individually ventilated cage and were housed under controlled specific-pathogen-free (SPF) environmental conditions (temperature 22.5 ± 1.5 °C; relative humidity 50 ± 10%; 12 h light/dark cycle) with ad libitum access to water and standard pellet food (4RF21, Mucedola, Italy). Environmental enrichment included corncob bedding, paper roll tube and one large sheet of tissue paper for nesting. Animals were monitored daily for health status and welfare.
# [3] = test system: VEGF secretion by MDA-MB-231 cells; test: VEGF production, Human VEGF Quantikine ELISA of cell culture medium; assay type: cell-based; details: MDA-MB-231, 5–20 µM, 12 h
# Method: MDA-MB-231 cells were seeded in 96-well microplates at the cell density 1.5 × 10^4 cells/cm^2 (final volume 200 µL/well) and left 24 h to attach. […] VEGF concentration in cell culture medium was determined in undiluted samples in duplicate using the Human VEGF Quantikine ELISA Kit (R&D Systems Inc., Minneapolis, MN, USA) according to the manufacturer’s protocol. In brief, 200 μL of conditioned media was added to a 96-well microplate pre-coated with monoclonal antibody for human VEGF and the plate was incubated for 2 h. After washing with wash buffer, enzyme-linked polyclonal antibody specific for human VEGF was added, followed by incubation for 2 h. The plate was washed to remove unbound antibody-enzyme reagent, substrate solution was added and incubated for 30 min and the reaction was terminated by the addition of the stop solution, producing a yellow solution. The optical density at 450 nm with wavelength correction at 540 nm was measured using a Synergy HT microplate reader (BioTek, Winooski, VT, USA). The concentration of VEGF was interpolated from the standard curve (15.6–1000 pg/mL) prepared in parallel.
# [4] = Tolerability in tumor-bearing mice (body weight, behavior, relative organ weight, histopathology, deaths)
# [5] = Pd2Spm 5 mg/kg/day, cisplatin 2 mg/kg/day
# [6] = tumor-bearing mice, i.p. 5 days, Pd2Spm 5 mg/kg/day, cisplatin 2 mg/kg/day
# [7] = organ weight/body weight × 100%, mean ± SEM, n = 7, cisplatin 2 mg/kg/day, Pd2Spm 5 mg/kg/day
structure (smiles),measurement,setting,value
"N.N.[Cl][Pt][Cl] [Cisplatin, cis-dichlorodiammine platinum(II), reference compound]",logIC50 ± SEM,"MDA-MB-231 cells [1]; MDA-MB-231, 24 h of incubation",−5.459 ± 0.036
same,IC50,"MDA-MB-231 cells [1]; MDA-MB-231, 24 h of incubation",3.5 µM
same,logIC50 ± SEM,"MDA-MB-231 cells [1]; MDA-MB-231, 48 h of incubation",−6.005 ± 0.027
same,IC50,"MDA-MB-231 cells [1]; MDA-MB-231, 48 h of incubation",1 µM
same,logIC50 ± SEM,"MDA-MB-231 cells [1]; MDA-MB-231, 72 h of incubation",−6.043 ± 0.020
same,IC50,"MDA-MB-231 cells [1]; MDA-MB-231, 72 h of incubation",0.9 µM
same,logEC50 (migration of MDA-MB-231 cells),MDA-MB-231 cells [2],−4.329 ± 0.130
same,pEC50,MDA-MB-231 cells [2],4.33
same,tumor growth reduction (versus the vehicle group),MDA-MB-231 breast tumors,56.6%
same,average tumor volumes compared to vehicle-treated control mice,MDA-MB-231 breast tumors,significantly lower
same,VEGF secretion in cell culture medium,[3],inhibited VEGF secretion in cell culture medium in a dose-dependent manner
same,"liver histopathology (glycogen accumulation, PAS)",[4]; [5],"swollen, pale and finely vacuolated cytoplasm due to intracellular accumulation of glycogen"
same,kidney histopathology (perirenal adipose tissue),[4]; compared to vehicle-treated animals,decreased perirenal adipose tissue
same,body weight,[4]; [6],slower body weight recovery
"NCCCNCCCCNCCCN.[Cl][Pd][Cl].[Cl][Pd][Cl] [Pd2Spm, dinuclear palladium(II)-spermine chelate]",pIC50,"MDA-MB-231 cells [1]; MDA-MB-231, 24-72 h, read-out: IC50 values (range over incubation times)",5.08 to 5.14
same,logIC50 ± SEM,"MDA-MB-231 cells [1]; MDA-MB-231, 24 h of incubation",−5.081 ± 0.024
same,IC50,"MDA-MB-231 cells [1]; MDA-MB-231, 24 h of incubation",8.3 µM
same,logIC50 ± SEM,"MDA-MB-231 cells [1]; MDA-MB-231, 48 h of incubation",−5.105 ± 0.022
same,IC50,"MDA-MB-231 cells [1]; MDA-MB-231, 48 h of incubation",7.9 µM
same,logIC50 ± SEM,"MDA-MB-231 cells [1]; MDA-MB-231, 72 h of incubation",−5.137 ± 0.021
same,IC50,"MDA-MB-231 cells [1]; MDA-MB-231, 72 h of incubation",7.3 µM
same,logEC50 (migration of MDA-MB-231 cells),MDA-MB-231 cells [2],−4.243 ± 0.113
same,pEC50,MDA-MB-231 cells [2],4.24
same,tumor growth reduction (versus the vehicle group),MDA-MB-231 breast tumors,43.3%
same,average tumor volumes compared to vehicle-treated control mice,MDA-MB-231 breast tumors,significantly lower
same,VEGF secretion in cell culture medium,[3],inhibited VEGF secretion in cell culture medium in a dose-dependent manner
same,"liver histopathology (glycogen accumulation, PAS)",[4]; [5],not observed
same,deaths during treatment,[4]; cumulative dose of 25 mg/kg (5 mg/kg/day for 5 consecutive days),no associated deaths
same,"Relative Organ Weight (%), Brain",[4]; [7],1.79 ± 0.16%
same,"Relative Organ Weight (%), Heart",[4]; [7],0.53 ± 0.06%
same,"Relative Organ Weight (%), Kidneys",[4]; [7],1.43 ± 0.10%
same,"Relative Organ Weight (%), Liver",[4]; [7],6.14 ± 0.29%
same,"Relative Organ Weight (%), Lungs",[4]; [7],0.77 ± 0.08%
same,"Relative Organ Weight (%), Spleen",[4]; [7],0.32 ± 0.11%
same,body weight,[4]; [6],did not show changes in body weight
same,signs of general toxicity,[4]; [6],no such adverse effects were observed
